Experimental data published in US9937161B2, “Combinatorial compositions and methods for treatment of melanoma” (THE GENERAL HOSPITAL CORPORATION, priority 2013, dated 2018).

Assays:
UACC257 cells [1] = assay: ATP assay after 2,4-DNP; type: cell-based; settings: 50 μg/mL, 24 h
Protocol: (§1) FIG. 7D are histograms showing the effects of 2,4-DNP (50 μg/mL, 24 h) on ATP in the indicated cell lines in vitro.
(§2) Glucose uptake (relative to total cell numbers) was measured over 24 h as trace [^3H]-deoxyglucose uptake in cells growing in glucose-containing media followed by plate harvest and subsequent analysis on a PerkinElmer® Wallac 1450 Microbeta scintillation counter. Oxygen consumption was measured using XF Flux Analyzer (Seahorse Biosciences) using standard protocols. ATP measurements were conducted using ENLITEN® ATP assay (PROMEGA®) according to standard trichloroacetic acid (TCA) extraction protocols.

A375P cells [2] = assay: ATP assay after 2,4-DNP; type: cell-based; settings: 50 μg/mL, 24 h
Protocol: as §1, §2

UACC257 xenografts = assay: Xenograft tumor study; type: in vivo, mice; settings: 2,4-DNP 20 mg/kg/day or vemurafenib 75 mg/kg/day by oral gavage
UACC257 cells [3] = assay: Lactate assay after 2,4-DNP; type: cell-based; settings: 50 μg/mL, 24 h
Protocol: (§3) FIG. 7E are histograms showing the effects of 2,4-DNP (50 μg/mL, 24 h) on the lactate levels in the indicated cell lines in vitro.
(§4) Indicated cell lines were plated in complete media overnight. […] Results were normalized to cell number. All assays were performed in logarithmically growing cells.

A375P cells [4] = assay: Lactate assay after 2,4-DNP; type: cell-based; settings: 50 μg/mL, 24 h
Protocol: as §3, §4

[5] = system: BRAF(V600E)+vector and BRAF(V600E)+MITF melanoma cells; assay: Cell number after 2,4-DNP in isogenic cells; type: cell-based, human; settings: 72 h
Protocol: FIG. 7A are histograms showing the number of BRAF(V600E)+vector and BRAF(V600E)+MITF melanoma cells following treatment with 2,4-DNP with indicated dose for 72 h.
as §4

melanoma cells (M14) = assay: Cell number, mitochondrial inhibitors combined with PLX4720; settings: in vitro; cell number after 72 hrs
Protocol: (§5) Melanoma cell were treated for 24 h with PLX4720 then mitochondrial uncoupler for 48 h, prior to estimation of cell number.
as §5
Cell number was calculated using the CYQUANT® assay (INVITROGEN™) or crystal violet staining. Lactate measurements were done using the Lactate Assay (BioVision or SIGMA®) per manufacturer's protocols. Indicated cell lines were plated in complete media overnight. Media was changed to serum free-media to avoid interference with the assay for 16 h with either PLX4720 (3 μM) or PLX4032 (1 μM) or vehicle control prior to harvesting cells and measurement of lactate. Results were normalized to cell number. All assays were performed in logarithmically growing cells.

A375P xenografts = assay: Xenograft tumor study; type: in vivo, mice; settings: 2,4-DNP 20 mg/kg/day by oral gavage
Protocol: FIG. 7G are line graphs showing the effect of 2,4-DNP (20 mg/kg/day) or vemurafenib (75 mg/kg/day) on murine melanoma xenografts of A375P cell line (n=7-8 per group). **, p<0.01 compared to vehicle group; ***, p<0.001 compared to vehicle group.
All mouse experiments (tumor nucleation studies and longitudinal drug treatment) were done in accordance with Institutional Animal Care and Use Committee (IACUC) approved animal protocols at Dana-Farber Cancer Institute. Engineered melanoma cells with BRAF(V600E)+vector or +MITF were inoculated subcutaneously at three flank positions (100,000 cells in 100 μL PBS per site) in NCR-FoxNu (male, 6 weeks) animals. Tumor establishment was monitored and experiment was terminated after 10 weeks. For longitudinal tumor treatment studies, melanoma cell lines (A375P and UACC257, both carrying pFUW-mCherry-puro-LUC) were injected subcutaneously into NCR-FoxNu mice (5,000,000 cells in 100 μL PBS with growth factor reduced matrigel). Initial tumor establishment and growth visualized by in vivo imaging by comparing signal obtained seven (7) days apart. […] Treatment with vemurafenib (75 mg/kg/day) or 2,4-DNP (20 mg/kg/day) was administered by oral gavage in 0.5% methyl cellulose and tumor size measured by calipers twice weekly. Mean response measured based on cohorts of 6-7 mice for each arm (and each cell line).

[6] = system: melanoma cells or primary human melanocytes; assay: Cell number after 2,4-DNP, melanoma cells versus melanocytes; type: cell-based; settings: 50 μg/mL, 72 h
Protocol: FIG. 13 are histograms showing the number of melanoma cells or primary human melanocytes following treatment with 2,4-DNP (50 μg/mL) for 72 h. **, p<0.01 compared to primary melanocytes treated with 2,4-DNP.
as §4

Question: How did the ATP (UACC257 cells [1]) turn out when O=[N+]([O-])c1ccc(O)c([N+](=O)[O-])c1 [2,4-DNP, 2,4-dinitrophenol] was run?
Answer: decrease

Question: And the “decrease in ATP” value (A375P cells [2])?
Answer: not

Question: What about the tumor growth (UACC257 xenografts) of the same compound?
Answer: profoundly inhibited tumor growth

Question: What about the lactate (UACC257 cells [3]) of the same compound?
Answer: increases

Question: And the increases in lactate (A375P cells [4])?
Answer: not

Question: And the “sensitivity of BRAF(V600E)+MITF cells versus BRAF(V600E)+vector cells (cell number)” value [5]?
Answer: significantly more sensitive

Question: And the “Combination Index with PLX4720 (additively enhanced the efficacy of PLX4720)” value (melanoma cells (M14))?
Answer: 0.9

Question: And the tumor growth (A375P xenografts)?
Answer: insensitive

Question: What about the “sensitivity of melanoma cells compared to primary melanocytes (cell number)” value [6] of the same compound?
Answer: more sensitive to DNP than primary melanocytes, except A375P
